In patent US20240116850A1, “COMPOSITIONS AND METHODS RELATED TO BICYCLO[2.2.1] HEPTANAMINE-CONTAINING COMPOUNDS” (The Broad Institute, Inc., priority 2020, published 2024):

Experiments:
[1] = Dynamic Vapor Sorption (DVS) hygroscopicity; assay type: physicochemical; conditions: for DVS (matrix of results from solid form characterization): summary grade Good/Moderate/Poor
Description: Dynamic Vapor Sorption (DVS) was measured via a SMS (Surface Measurement Systems) DVS Intrinsic. The relative humidity at 25° C. were calibrated against the deliquescence point of LiCl, Mg(NO3)2 and KCl.

[2] = Physical and chemical stability on storage (LC-MS and XRPD); assay type: physicochemical; conditions: for decomposition or solid form change in stability assay / Stability (matrix of results from solid form characterization): 1 week stability assay; for Solid Form after storage (XRPD) / Stability: 25/60% RH; 40 C./75% RH; 1 week / Form change?: 1 week; for Stability: 25/60% RH; 40 C./75% RH; 1 week / Form change?: BRD4780 salt solid form, 25/60% RH and 40 C./75% RH; for Stability: 25/60% RH; 40 C./75% RH; 1 week: impurities estimated by LCMS by observation of the TIC; for Form change?: solid form change (XRPD); for Stability (matrix of results from solid form characterization): summary grade Good/Moderate/Poor
Description: To compare the physical/chemical stability of the salt candidates, approximate 10 mg of each solid sample was added to a 5-mL glass vial covered with Parafilm® with several pin-holes on it, and then stored under 25° C./60% RH and 40° C./75% RH. After one week storage, solids were taken out for LC-MS and XRPD test to evaluate physical and chemical stability.

[3] = TGA and DSC thermal characterization of salts; assay type: physicochemical; conditions: summary grade Good/Moderate/Poor
Description: TGA data were collected using a TA Discovery5500/Q5000 TGA from TA Instruments. DSC was performed using a TA Discovery2500/Q2000 DSC from TA Instruments.

[4] = Equilibrium solubility in water and bio-relevant media (SGF, FaSSIF, FeSSIF); conditions: for solubility: thermodynamic from solid; for Solubility (matrix of results from solid form characterization): summary grade Good/Moderate/Poor
MUC1-fs = assay: High-content imaging assay of MUC1-fs total cytoplasm intensity in P cells; assay type: cell-based; conditions: for EC50: MUC1-fs total cytoplasm intensity, P cells, 48 hr incubation; for ECMax: MUC1-fs, DMSO = 0, JQ1 (250 nM) = −100% activity
Description: (§1) P cells were seeded 24 hr prior to compound treatment at a density of 12,000 cells/well in 384 well Cell Carrier Ultra plates (6057308, Perkin Elmer), pre-coated with 0.25 mg/mL Synthemax 11 SC Substrate (3535, Corning). Compounds were used at 5 doses (35, 3.5, 0.35, 0.035 and 0.0035 μM) for the primary screen and 10 doses (16, 5.6, 1.8, 0.6, 0.21, 0.07, 0.02, 0.008, 0.002 and 0.0008 μM) for the following screens. The compounds, in two replicates, were transferred from compound source plates to the cell plates using the HighRes Pin Tool. DMSO was used as a negative control and JQ1 (250 nM) (a bromodomain inhibitor) was chosen as a positive control, based on earlier studies showing its potent effect on reducing total MUC1 mRNA levels (data not shown). After 48 hr incubation, cells were fixed for 20 min in 4% PFA (Electron Microscopy Sciences) in PBS, washed twice, then permeabilized (10 min) with 0.5% Triton-X100 (X100-100MVL, Sigma-Aldrich) in PBS and washed once more. Cells were blocked for 10 min at RT with Blocking solution (100 mM Tris HCL pH8; l150 mM NaCL; 5 g/L Blocking Reagent [11096176001, Roche]), then incubated 90 min at RT with one of the following primary antibodies in Roche Blocking solution: 1:500, monoclonal Fab-A-V5H anti-MUC1-fs, AbD22655.2, Bio-Rad; 1:2000, monoclonal mouse anti-MUC1 (214D4), 05-652-KC, Millipore; 1:1000, monoclonal, Rabbit anti-GM130 (D6B1) XP, 12480, Cell signaling technology. The primary antibody cocktail was incubated at RT for 1.5 hr, followed by four PBS wash cycles. The secondary antibody cocktail contained four components that were all prepared at a 1:1000 dilution in the Roche blocking solution and consisted of Alexa Fluor® 488-conjugated AffiniPure F(ab′)2 Fragment Goat anti-Human IgG, 109-546-097, Jackson Immunoresearch; Alexa Fluor® 647-conjugated Goat anti-Rabbit IgG, A-21246, Thermo Fisher Scientific®; Alexa Fluor® 546 Goat anti-mouse IgG, A-21123, Thermo Fisher Scientific® and Hoechst 33342 stain (62249, Thermo Fisher Scientific®). The secondary antibody cocktail was incubated at RT for 45 min, followed by four PBS wash cycles. Finally, plates were sealed with a Plate Loc plate and stored in Liconic incubator at 10° C. until imaging. Following image analysis, three parameters were selected, i) MUC1-fs and ii) MUC1-wt total cytoplasm intensity (averaged per cell) and iii) cell number as was detected by Hoechst 33342 stained nuclei. The levels of MUC1-fs and MUC1-wt found following DMSO and JQ1 were defined as 0 and −100% activity, respectively. The values obtained for all compounds were normalized accordingly. Cell number was normalized to DMSO control.
(§2) The pure enantiomers were profiled in the high-content imaging assay for the ability to reduce the amount of FS MUC1 protein in the cytoplasm (Table 48) following the procedure of Example 4.

MUC1-wt = assay: High-content imaging assay of MUC1-wt total cytoplasm intensity in P cells; assay type: cell-based; conditions: for EC50: MUC1-wt total cytoplasm intensity, P cells, 48 hr incubation; for WT ECMax: MUC1-wt, DMSO = 0, JQ1 (250 nM) = −100% activity
Description: as §1, §2

[5] = fasted state simulated intestinal fluid (FaSSIF), pH 6.5, fassif, FaSSIF solubility, Fasted State Simulated Intestinal Fluid (pH 6.5)
[6] = fed state simulated intestinal fluid (FeSSIF), pH 5, fessif, FeSSIF solubility, Fed State Simulated Intestinal Fluid (pH 5.0)
[7] = simulated gastric fluid (SGF), pH 1.8, simulated gastric fluid, SGF solubility, Simulated gastric fluid (pH 1.8)
[8] = water, H2O solubility (mM; salt)
[9] = water, H2O solubility (mg/mL; salt), HCl salt tested at 100 mg/mL, other salts at 50 mg/mL

CC(C)[C@@H]1[C@H]2CC[C@H](C2)[C@H]1N (racemic) [Phosphate Type B]
DVS (% H2O uptake at 25 C./80% RH) [1]: 1.18%
DVS (% H2O uptake at 25 C./95% RH) [1]: 5.8%
desorption of absorbed H2O ([1]; DVS): did not fully desorb
hygroscopicity classification ([1]; DVS): hygroscopic
DVS (matrix of results from solid form characterization) [1]: Poor
decomposition or solid form change in stability assay [2]: form change observed
Solid Form after storage (XRPD) ([2]; 25° C./60% RH): Phosphate Type A + B
Solid Form after storage (XRPD) ([2]; 40° C./75% RH): Phosphate Type A + B
Stability: 25/60% RH; 40 C./75% RH; 1 week [2]: No significant impurities
Form change? [2]: Phosphate A
Stability (matrix of results from solid form characterization) [2]: Poor
TGA/DSC (matrix of results from solid form characterization) [3]: Poor
solubility [4, 5]: > 29 mg/mL
solubility [4, 6]: > 27 mg/mL
pH ([4]; final solution in FaSSIF): 5.1
pH ([4]; final solution in FeSSIF): 4.8
pH ([4]; final solution in H2O): 4.4
pH ([4]; final solution in SGF): 3.0
solubility [4, 7]: > 32 mg/mL
Solubility (matrix of results from solid form characterization) [4]: Good
solubility [4, 8]: > 163 mM
solubility [4, 9]: > 33 mg/mL

Cl.N[C@@H]1[C@@H]2CC[C@@H](C2)[C@H]1C1CCCC1 (single isomer, unassigned) [Compound 116-P1]
EC50 (MUC1-fs): > 32 µM
ECMax (MUC1-fs): −10.6%
EC50 (MUC1-wt): > 32 µM
WT ECMax (MUC1-wt): 18.63%

Cl.N[C@H]1[C@H]2CC[C@H](C2)[C@@H]1C1CCCC1 (single isomer, unassigned) [Compound 116-P2]
EC50 (MUC1-fs): > 32 µM
ECMax (MUC1-fs): −16.96%
EC50 (MUC1-wt): > 32 µM
WT ECMax (MUC1-wt): −19.89%

Cl.N[C@H]1[C@@H]2CC[C@@H](C2)[C@@H]1C1CCCC1 (single isomer, unassigned) [Compound 117-P1]
EC50 (MUC1-fs): 25.9 µM
ECMax (MUC1-fs): −16.91%
EC50 (MUC1-wt): > 32 µM
WT ECMax (MUC1-wt): 7.72%

Cl.N[C@@H]1[C@H]2CC[C@H](C2)[C@H]1C1CCCC1 (single isomer, unassigned) [Compound 117-P2]
EC50 (MUC1-fs): > 32 µM
ECMax (MUC1-fs): −15.88%
EC50 (MUC1-wt): > 32 µM
WT ECMax (MUC1-wt): −15.43%

Cl.N[C@@H]1[C@@H]2CC[C@@H](C2)[C@H]1C1CCCCC1 (single isomer, unassigned) [Compound 118-P1]
EC50 (MUC1-fs): > 32 µM
ECMax (MUC1-fs): −7.97%
EC50 (MUC1-wt): > 32 µM
WT ECMax (MUC1-wt): 9.54%

Cl.N[C@H]1[C@H]2CC[C@H](C2)[C@@H]1C1CCCCC1 (single isomer, unassigned) [Compound 118-P2]
EC50 (MUC1-fs): > 32 µM
ECMax (MUC1-fs): 0%
EC50 (MUC1-wt): > 32 µM
WT ECMax (MUC1-wt): 0%

Cl.N[C@H]1[C@@H]2CC[C@@H](C2)[C@@H]1C1CCCCC1 (single isomer, unassigned) [Compound 119-P1]
EC50 (MUC1-fs): > 32 µM
ECMax (MUC1-fs): −14.14%
EC50 (MUC1-wt): > 32 µM
WT ECMax (MUC1-wt): −14.31%

Cl.N[C@@H]1[C@H]2CC[C@H](C2)[C@H]1C1CCCCC1 (single isomer, unassigned) [Compound 119-P2]
EC50 (MUC1-fs): > 32 µM
ECMax (MUC1-fs): 0%
EC50 (MUC1-wt): > 32 µM
WT ECMax (MUC1-wt): 0%

Cl.N[C@H]1[C@H]2CC[C@H](C2)[C@@H]1c1ccccc1 (single isomer, unassigned) [Compound 120-P2]
EC50 (MUC1-fs): > 32 µM
ECMax (MUC1-fs): −24.61%
EC50 (MUC1-wt): > 32 µM
WT ECMax (MUC1-wt): −11.21%

Cl.N[C@@H]1[C@H]2CC[C@H](C2)[C@H]1c1ccccc1 (single isomer, unassigned) [Compound 121-P2]
EC50 (MUC1-fs): > 32 µM
ECMax (MUC1-fs): −9.03%
EC50 (MUC1-wt): > 32 µM
WT ECMax (MUC1-wt): 7.35%

CC(C)[C@@H]1[C@@H]2CC[C@@H](C2)[C@H]1N.Cl [Compound 101]
EC50 (MUC1-fs): 0.524 µM
ECMax (MUC1-fs): −68.74%
EC50 (MUC1-wt): 12.3 µM
WT ECMax (MUC1-wt): 18.4%

CC(C)[C@H]1[C@H]2CC[C@H](C2)[C@@H]1N.Cl [Compound 102]
EC50 (MUC1-fs): 8.63 µM
ECMax (MUC1-fs): −60.66%
EC50 (MUC1-wt): > 32 µM
WT ECMax (MUC1-wt): −16.83%

CCC[C@@H]1[C@H]2CC[C@H](C2)[C@H]1N.Cl [Compound 107-P1]
EC50 (MUC1-fs): 25.8 µM
ECMax (MUC1-fs): −15.72%
EC50 (MUC1-wt): > 32 µM
WT ECMax (MUC1-wt): 14.07%

CCC[C@H]1[C@@H]2CC[C@@H](C2)[C@@H]1N.Cl [Compound 107-P2]
EC50 (MUC1-fs): > 32 µM
ECMax (MUC1-fs): −9.6%
EC50 (MUC1-wt): > 32 µM
WT ECMax (MUC1-wt): 8.96%

CCC[C@H]1[C@H]2CC[C@H](C2)[C@@H]1N.Cl [Compound 108-P1]
EC50 (MUC1-fs): 29.9 µM
ECMax (MUC1-fs): −24.9%
EC50 (MUC1-wt): > 32 µM
WT ECMax (MUC1-wt): −12.05%

CCC[C@@H]1[C@@H]2CC[C@@H](C2)[C@H]1N.Cl [Compound 108-P2]
EC50 (MUC1-fs): 5.6 µM
ECMax (MUC1-fs): 22.43%
EC50 (MUC1-wt): > 32 µM
WT ECMax (MUC1-wt): 16.1%

CC(C)[C@@H]1[C@H]2CC[C@H](C2)[C@H]1N.O=C(O)/C=C/C(=O)O [Fumarate Type A]
DVS (% H2O uptake at 25 C./80% RH) [1]: 0.15%
DVS (% H2O uptake at 25 C./95% RH) [1]: 0.16%
hygroscopicity classification ([1]; DVS): not hygroscopic
DVS (matrix of results from solid form characterization) [1]: Good
decomposition or solid form change in stability assay [2]: did not display decomposition or solid form change
Solid Form after storage (XRPD) ([2]; 25° C./60% RH): Fumarate Type A
Solid Form after storage (XRPD) ([2]; 40° C./75% RH): Fumarate Type A
Stability: 25/60% RH; 40 C./75% RH; 1 week [2]: No significant impurities
Form change? [2]: No change
Stability (matrix of results from solid form characterization) [2]: Good
TGA/DSC (matrix of results from solid form characterization) [3]: Good
XRPD after stirring in medium ([4]; 24 hours in FeSSIF): Additional peaks in the XRPD spectra were observed
solubility [4, 5]: 12.4 mg/mL
solubility [4, 6]: 17.1 mg/mL
pH ([4]; final solution in FaSSIF): 3.5
pH ([4]; final solution in FeSSIF): 4.1
pH ([4]; final solution in H2O): 3.4
pH ([4]; final solution in SGF): 3.1
solubility [4, 7]: 11.9 mg/mL
Solubility (matrix of results from solid form characterization) [4]: Moderate
solubility [4, 8]: 44.6 mM
solubility [4, 9]: 12.3 mg/mL
